Measurements taken from patent US20260327211A1, “MODULATORS OF A POTASSIUM CHANNEL AND OF TRPV1 CHANNEL AND USES THEREOF” (Bsense Bio Therapeutics Ltd., priority 2023, published 2026).

Experiments:
rats [1] = assay: Rotarod assay (PSPP); format: in vivo, rat; settings: up to 300 mg/kg, male and female, 1-6 hours post-dose
Text: Animals: 50 male and 50 female Sprague Dawley rats from Envigo (Frederick, MD) were used in the study. Male animals were received at body weights between approximately 200-215 grams, and female animals between 175-205 grams. All animals were housed 3 per cage (15.55×13.63×8.39 inches) and acclimated to the vivarium for 6-9 days prior to testing. All cages contained BedO'Cob® bedding with Nylabones® for enrichment. All rats were examined, handled, and weighed prior to initiation of the study to ensure adequate health and suitability. During the study, 12/12 light/dark cycles were maintained. The room temperature was maintained between […] and 23° C. with relative humidity maintained around 50%. Chow (LabDiet 5001, LabDiet, St. Louis, MO, USA) and water were provided ad libitum except where specified below. Testing was performed during the animal's light cycle phase (between 6 am and […]). Body weights were recorded prior to baseline assessment. Latency to fall off the rotating rod was the primary measure of performance.
Training: Each trial on the rotarod was identical, a 5 second ramp from 0-17 RPM followed by a period of constant velocity at 17 RPM for up to 40 seconds, for a total trial time of […].
Animals ran three training trials on Day 1 with a 30 minutes interval between training trials. […] The outcome measured was latency to fall off the rotating rod. […]

opioid delta receptor = biological target: T1, opioid delta receptor (Homo sapiens, UniProt P41143); assay: Functional selectivity panel, opioid delta receptor; format: biochemical
T1 construct: Eurofins DiscoverX, USA
Experimental: A broad panel of 78 recombinant targets was tested for pharmacologic activity in vitro through a variety of functional assays (Eurofins DiscoverX, USA), as part of the National Institute of Neurological Disorders and Stroke (NINDS) Preclinical Screening Platform for Pain (PSPP) program. The biological targets for the in vitro profiling have been selected based on avoiding opioid receptor stimulation and targets known to be associated with adverse events or targeted by drugs of abuse. […] For each test, a reference compound was evaluated at the target of interest as a positive control.

rats [2] = assay: Hot plate (53° C.); format: in vivo, rat
Experimental: Hot Plate: Animals were placed on hot plate analgesia meter (IITC Life Science Inc., CA, USA) set to 53±1° C., and the time until the first escape response was observed was recorded. A response was considered when the animals lifted or licked their leg or performed kicking behavior.

[3] = tested on: Spared Nerve Injury (SNI) rats; assay: Spared Nerve Injury (SNI) model, von Frey; format: in vivo, rat
Experimental: All animal experiments were carried out according to the Guide for the Care and Use of Laboratory Animals (2011 edition) and approved by the Israel National Institutional Animal Care and Use Committee (IACUC). Young adult male SD rats (Envigo RMS, Israel), were used for in vivo efficacy: Spared Nerve Injury (SNI), Distal Tibial Injury (DTI) and Post-operative Pain (POP), 200-220 grams, Chronic Post-Ischemia Pain (CPIP) 275-325 grams, Monosodium iodoacetate-induced osteoarthritis (MIA-OA) 180-220 grams; for in vivo safety: 200-250 grams at study initiation. […] The health status of the animals used in this study was examined upon their arrival. Only animals in good health were acclimatized to laboratory conditions and were used in the studies. All studies were performed following at least five days of animal acclimation. During acclimation and throughout the entire study duration, animals were housed within a limited-access rodent facility and kept in groups with a maximum of 2-3 rats per polypropylene cage. The cages were fitted with solid bottoms and filled with sterile wood shavings as bedding material. Animals were provided ad libitum with a commercial, sterile rodent diet and had free access to drinking water that was supplied to each cage via polyethylene bottles with stainless steel sipper tubes. A feed lot analysis of the diet batch used in the study was included in the archives with the study data. Water was monitored periodically. Plastic cylinders for playing and hiding and wooden balls or sticks were added to the cages for environmental enrichment.
SNI: The SNI procedure consisted of ligating and dissecting the tibial and common peroneal nerves, thus sparing the sural nerve. Prior to surgery, a dose of 0.03 mg/kg buprenorphine (Temgesic®) was administered to animals as a prophylaxis to alleviate the operative and postoperative pain unrelated to neuropathy. Next, animals were anesthetized with a combination of medetomidine/ketamine sodium IP. While under anesthesia a medio caudal incision of 4-5 mm parallel to the left femur was cut on shaved and disinfected skin. The sciatic nerve was exposed from underneath the muscle layer and isolated gently from the surrounding connective tissue, using curved and blunt forceps. The tibial and common peroneal nerves were first tightly ligated with double knot of 6-0 silk suture, proximally and immediately distal to the sciatic bifurcation. Thereafter, the nerves which run as a pair as physically attached to each other were cut at sites close to the ligatures, thereby removing a length of approximately 0.5 mm of the nerves, necessary to avoid the formation of any re-connection to the nerves. This procedure led to complete denervation of areas of tibial and peroneal innervation in the plantar paw, while neuropathy was developed upon the sural territories. Special care was taken not to manipulate the sural nerve, which thus was left intact. The muscle layers and skin were sutured, and animals were allowed to recover. 0.03 mg/kg buprenorphine SC was administered on postoperative days 1-2, every 12 hours, starting from the evening of Day 0. Rehydration with 4 ml of sterile saline IP was provided directly after the surgery, continuing twice a day for 7 days. The sural nerve innervates the lateral longitudinal third of the plantar paw and therefore, mechanical sensitivity was assessed in this area.
The selection of animals was performed on day 13 post-operation before animals were placed in their experimental groups. Animals with a pain threshold of <4 grams for an operated leg following Von Frey testing were included in the study. To form homogenous treatment groups, all the selected animals were grouped using a random sampling method on study day 13, to form groups with similar pain threshold mean. For blinding purposes, the researcher who dosed the animals with test items was different than the researcher who conducted the VF tests. […]

T1 sequence (P41143 whole entry): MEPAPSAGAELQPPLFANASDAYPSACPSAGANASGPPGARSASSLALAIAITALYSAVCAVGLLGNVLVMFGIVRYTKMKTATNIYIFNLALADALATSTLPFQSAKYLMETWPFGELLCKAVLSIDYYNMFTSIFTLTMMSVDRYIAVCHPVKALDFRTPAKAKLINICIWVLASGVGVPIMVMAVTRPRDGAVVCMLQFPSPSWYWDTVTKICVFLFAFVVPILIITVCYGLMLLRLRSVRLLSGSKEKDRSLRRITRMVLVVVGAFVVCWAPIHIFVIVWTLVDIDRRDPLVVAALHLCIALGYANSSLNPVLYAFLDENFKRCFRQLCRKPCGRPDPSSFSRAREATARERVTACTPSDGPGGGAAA

| IC50 (opioid delta receptor) | Hot plate escape latency (rats [2]; 20 and 50 mg/kg PO, 2-10 hours post-dose) | SMILES | Rotarod performance (rats [1]) | PWT efficacy ([3]; 2 mg/kg PO) | Reversal of PWT ([3]; 20 mg/kg PO, 4 hour post-dose) | PWT efficacy ([3]; 20 mg/kg PO, up to 8 hour post-dose) | Reversal of mechanical PWT ([3]; 100 mg/kg oral, 6 hour post-dose) | Effect on Opioid-delta (opioid delta receptor; up to 10 micromolar) | Hot-plate response (rats [2]; up to 300 mg/kg oral) | Pain relief in SNI ([3]; 3-30 mg/kg PO) | minimal effective dose ([3]; Rattus norvegicus, po) |
| --- | --- | --- | --- | --- | --- | --- | --- | --- | --- | --- | --- |
| 10 µM | no significant effect on escape latency | O=C(Cc1cncc(-n2cc(Cl)c3cc(Cl)cc(Cl)c32)c1)N[C@@H]1COC[C@H]1O [Compound 661] | no effects on rotarod performance | although not reaching statistical significance, showed an efficacious trend | 53% | remained statistically significant up to 8 hour post-dose | 47.2% |  |  |  |  |
|  |  | O=C(Cc1nccc(-n2cc(Cl)c3cc(Cl)cc(Cl)c32)n1)NC1COCC1O (centres unmarked) [Compound 760] |  |  |  |  |  | no effect | displayed safety potential at up to 300 mg/kg oral dosing | pain relief comparable to Pregabalin's high and impairing dose | 3 to 30 mg/kg |
